Test results reported in patent US9820966B2, “Stabilized statin formulations” (Cumberland Pharmaceuticals Inc., priority 2010, dated 2017).
Where two headings read alike, the source gives them in different places.

How the values were obtained:
[1] = Precipitation on dilution into water or saline; type: physicochemical
[2] = Solubility in basic solutions without cyclodextrin (HPLC); details: Sample 1: 20 mg AS in 1 mL, 16.54 mM L-Arg; pH 10.71 with L-Arg (L-Arg alone)
[3] = AS in propylene glycol and ethanol (4/1), pH 11.0; in 2 hours
Procedure: The sample was then vortexed, filtered, after which it was analyzed by HPLC.

CC(C)c1c(C(=O)Nc2ccccc2)c(-c2ccccc2)c(-c2ccc(F)cc2)n1CC[C@@H](O)C[C@@H](O)CC(=O)O [AS—Ca, atorvastatin calcium trihydrate]
degradation (control solution of the same mixture (20% HPβ-CD, pH 8.47), 40° C. for 1 month): ~15.5%
degradation (solubilized with HPβ-CD (20%, pH 8.47), lyophilized with manifold freeze dryer, 40° C. for 1 month): ~3.5%
degradation (solubilized with HPβ-CD, diluted 1:1 into 8% sucrose, lyophilized with shelf freeze dryer, storage 1 month at 40° C.): less than 0.1%
precipitation on dilution ([1]; Example 12 PG/ethanol/water sample adjusted to pH 7.5, diluted 1:1 into water): precipitated
precipitation on dilution ([1]; Example 12 PG/ethanol/water sample adjusted to pH 8.0, diluted 1:1 into water): precipitated
precipitation on dilution ([1]; anything less than 40% propylene glycol and 10% ethanol, diluted with normal saline): precipitation
precipitation on dilution ([1]; prepared in non-aqueous co-solvents and then diluted into saline): precipitate
precipitation on dilution ([1]; propylene glycol and ethanol (4/1), pH 11.0, diluted 1:3 in saline): precipitated

CC(C)c1c(C(=O)Nc2ccccc2)c(-c2ccccc2)c(-c2ccc(F)cc2)n1CC[C@@H](O)C[C@@H](O)CC(=O)O [AS, Atorvastatin free acid]
resulting concentration [2]: 1.91 mg/mL
degradation [3]: approximately 50%
precipitation on dilution ([1]; 100% ethanol solution, diluted 1:1 with saline): precipitated
precipitation on dilution ([1]; 100% propylene glycol solution, diluted 1:1 with saline): precipitated
